Legend:
XBP-luciferase reporter = assay: In vivo bioluminescence imaging of XBP-luciferase tumor xenografts; set-up: species or system mouse
Method: HT1080 fibrosarcoma cells (2×10^6) stably expressing the XBP-luciferase reporter were implanted s.c. into severe combined immune deficient (SCID) mice. Ten minutes prior to imaging, mice were injected i.p. with D-luciferin (150 mg/kg) solubilized in PBS. Optical bioluminescence imaging was performed using the IVIS charged-coupled device camera system (Caliper Life Sciences, Hopkinton, Mass.). Mice were imaged for 1-4 minutes per acquisition scan. Signal intensities were analyzed using Living Image software (Caliper).
A. Irestatin 9389 impairs IREla activity in implanted tumor xenografts. Equal numbers (2×10^6) of XBP-luciferase or CMV-luciferase reporter cells were implanted s.c. into SCID mice. After one week, mice were treated with irestatin 9389 (50 mg/kg), followed by optical bioluminescence imaging. B. Inhibition of tumor growth by irestatin 9389. […] Tumor volumes were calculated based on caliper measurements taken every 3-5 days. Data points represent the mean volume calculated from at least 7 tumors per group, with SEM shown in one direction. […]
The increased sensitivity of irestatin-treated cells to hypoxic stress in vitro indicate that selective inhibition of IRE1α signaling could impact tumor growth. […] In contrast, XBP-1s was not detected in normal pancreas specimens (0/20), and infrequently observed in chronic pancreatitis (1/29) (FIG. 15). […]

CHOP/GADD153 = CHOP/GADD153 expression in hypoxic HT1080 cells (Western blot); format: cell-based, human; settings: 2.5 μM, hypoxia 6-12 hours
Method: A. Effect of irestatin 9389 on PERK and ATF6 pathways. HT1080 cells were treated with vehicle alone (lanes 1-4) or 2.5 μM irestatin 9389 (lanes 5-8) and cultured under aerobic conditions for 18 hours (N) or shifted to hypoxia for the indicated times. Protein lysates were analyzed by Western blot analysis using antisera specific for ATF6 (top), CHOP/GADD153 (middle) or actin (bottom). Arrow indicates the cleaved, transcriptionally active form of ATF6. B. Cleavage of caspase-3 in irestatin-treated cells under hypoxia. HT1080 cells were cultured in normoxia (N) or under hypoxia for 36 hours (H 36) in absence or presence of irestatin 9389 (2.5 μM). Arrows indicate proteolytically cleaved caspase-3. C. Colony formation assay. HT1080 cells were treated as in B under normoxia (N) or hypoxia for 48 hours (H 48). Cells were harvested, counted, and allowed to grow under normal culture conditions for 11-12 days. Colonies were visualized with crystal violet staining. D. Quantification of clonogenic survival assay. Values represent the mean+/−SEM from at least 4 independent experiments. E. TUNEL staining of cells treated as in C. F. Quantification of TUNEL-positive cells. Values represent the mean+/−SEM from at least 3 experiments. […] Cells were harvested at the indicated times and counted by hemocytometer. Values represent the mean calculated from triplicate experiments +/−SEM. […]

Q: What does the source list for `Cc1csc(NC(=O)CSc2nc3c(c(C(F)(F)F)c2C#N)CCC3)n1` [Compound 9389]?
A: duration of robust inhibition of the XBP-luciferase reporter after injection (XBP-luciferase reporter; SCID mice, single doses of 50-60 mg/kg): 6 to 8 h; time at which XBP-luciferase signal returned to basal levels (XBP-luciferase reporter; after treatment): ≤ 24 h; expression of CHOP/GADD153 (CHOP/GADD153): increased
